Measured values as given in PubChem BioAssay (NCI).
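Here, GI50 denotes the concentration required for 50% inhibition of growth. Definition used: TGI = concentration required for complete inhibition of growth.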

What was measured:
Assay in all cases: NCI tumour cell line growth inhibition, 384-well format
[1] = test system: 786-0 renal
[2] = test system: A498 renal
[3] = test system: A549 NSCLC
[4] = test system: ACHN renal
[5] = test system: BT-549 breast
[6] = test system: CAKI-1 renal
[7] = test system: CCRF-CEM leukemia
[8] = test system: COLO 205 colon
[9] = test system: DU-145 prostate
[10] = test system: EKVX NSCLC
[11] = test system: HCC-2998 colon
[12] = test system: HCT-116 colon
[13] = test system: HCT-15 colon
[14] = test system: HL-60(TB) leukemia
[15] = test system: HOP-62 NSCLC
[16] = test system: HOP-92 NSCLC
[17] = test system: HS 578T breast
[18] = test system: HT29 colon
[19] = test system: IGROV1 ovarian
[20] = test system: K-562 leukemia
[21] = test system: KM12 colon
[22] = test system: LOX IMVI melanoma
[23] = test system: M14 melanoma
[24] = test system: MALME-3M melanoma
[25] = test system: MCF7 breast
[26] = test system: MDA-MB-435 melanoma
[27] = test system: MDA-MB-468 breast
[28] = test system: MOLT-4 leukemia
[29] = test system: NCI-H226 lung
[30] = test system: NCI-H23 lung
[31] = test system: NCI-H322M lung
[32] = test system: NCI-H460 NSCLC
[33] = test system: NCI-H522 lung
[34] = test system: NCI/ADR-RES ovarian
[35] = test system: OVCAR-3 ovarian
[36] = test system: OVCAR-4 ovarian
[37] = test system: OVCAR-8 ovarian
[38] = test system: PC-3 prostate
[39] = test system: RPMI-8226 leukemia
[40] = test system: RXF 393 renal
[41] = test system: SF-268 CNS
[42] = test system: SF-295 CNS
[43] = test system: SF-539 CNS
[44] = test system: SK-MEL-2 melanoma
[45] = test system: SK-MEL-28 melanoma
[46] = test system: SK-MEL-5 melanoma
[47] = test system: SK-OV-3 ovarian
[48] = test system: SN12C renal
[49] = test system: SNB-19 CNS
[50] = test system: SNB-75 CNS
[51] = test system: SW-620 colon
[52] = test system: TK-10 renal
[53] = test system: U251 glioblastoma
[54] = test system: UACC-257 melanoma
[55] = test system: UACC-62 melanoma
[56] = test system: MDA-MB-231 breast

CN(C)c1ccc(N)c2ccccc12
GI50 [1]: 2160 nM | TGI [1]: 9600 nM | GI50 [2]: 11900 nM | TGI [2]: 24300 nM | GI50 [3]: 4160 nM | TGI [3]: 16600 nM | GI50 [4]: 12100 nM | TGI [4]: 24600 nM | GI50 [5]: 1500 nM | TGI [5]: 2840 nM | GI50 [6]: 13100 nM | TGI [6]: 26000 nM | GI50 [7]: 4650 nM | TGI [7]: 19100 nM | GI50 [8]: 2090 nM | TGI [8]: 4210 nM | GI50 [9]: 1410 nM | TGI [9]: 2730 nM | GI50 [10]: 1700 nM | TGI [10]: 8100 nM | GI50 [11]: 2400 nM | TGI [11]: 16200 nM | GI50 [12]: 2200 nM | TGI [12]: 5930 nM | GI50 [13]: 1470 nM | TGI [13]: 3540 nM | GI50 [14]: 814 nM | TGI [14]: 2100 nM | GI50 [15]: 1590 nM | TGI [15]: 2980 nM | GI50 [16]: 5850 nM | TGI [16]: 19500 nM | GI50 [17]: 2440 nM | TGI [17]: 6720 nM | GI50 [18]: 4550 nM | TGI [18]: 16400 nM | GI50 [19]: 1860 nM | TGI [19]: 16100 nM | GI50 [20]: 18400 nM | TGI [20]: 32400 nM | GI50 [21]: 3650 nM | TGI [21]: 14800 nM | GI50 [22]: 217 nM | TGI [22]: 1560 nM | GI50 [23]: 1500 nM | TGI [23]: 2840 nM | GI50 [24]: 448 nM | TGI [24]: 1680 nM | GI50 [25]: 1340 nM | TGI [25]: 2640 nM | GI50 [26]: 1360 nM | TGI [26]: 2650 nM | GI50 [27]: 591 nM | TGI [27]: 4610 nM | GI50 [28]: 802 nM | TGI [28]: 2480 nM | GI50 [29]: 1280 nM | TGI [29]: 7630 nM | GI50 [30]: 1470 nM | TGI [30]: 2880 nM | GI50 [31]: 2100 nM | TGI [31]: 3860 nM | GI50 [32]: 2930 nM | TGI [32]: 10400 nM | GI50 [33]: 2770 nM | TGI [33]: 11600 nM | GI50 [34]: 11800 nM | TGI [34]: 24600 nM | GI50 [35]: 1160 nM | TGI [35]: 2520 nM | GI50 [36]: 397 nM | TGI [36]: 3650 nM | GI50 [37]: 5330 nM | TGI [37]: 17500 nM | GI50 [38]: 1340 nM | TGI [38]: 6240 nM | GI50 [39]: 1830 nM | TGI [39]: 5980 nM | GI50 [40]: 2680 nM | TGI [40]: 10500 nM | GI50 [41]: 8320 nM | TGI [41]: 20500 nM | GI50 [42]: 7170 nM | TGI [42]: 20100 nM | GI50 [43]: 1750 nM | TGI [43]: 3300 nM | GI50 [44]: 1260 nM | TGI [44]: 2770 nM | GI50 [45]: 1760 nM | TGI [45]: 3710 nM | GI50 [46]: 146 nM | TGI [46]: 1610 nM | GI50 [47]: 10100 nM | TGI [47]: 21800 nM | GI50 [48]: 1760 nM | TGI [48]: 3190 nM | GI50 [49]: 3400 nM | TGI [49]: 11700 nM | GI50 [50]: 2390 nM | TGI [50]: 7530 nM | GI50 [51]: 1640 nM | TGI [51]: 3110 nM | GI50 [52]: 11300 nM | TGI [52]: 23500 nM | GI50 [53]: 7750 nM | TGI [53]: 20400 nM | GI50 [54]: 1040 nM | TGI [54]: 2220 nM | GI50 [55]: 1240 nM | TGI [55]: 2500 nM

CN1CCC(COc2cnc(-c3cccc(Cn4nc(-c5cccc(C#N)c5)ccc4=O)c3)nc2)CC1
GI50 [1]: 1690 nM | TGI [1]: 3220 nM | GI50 [2]: 2040 nM | TGI [2]: 3620 nM | GI50 [3]: 2200 nM | TGI [3]: 4560 nM | GI50 [4]: 2050 nM | TGI [4]: 3760 nM | GI50 [5]: 1440 nM | TGI [5]: 2760 nM | GI50 [6]: 1730 nM | TGI [6]: 3200 nM | GI50 [8]: 2460 nM | TGI [8]: 5350 nM | GI50 [9]: 2530 nM | TGI [9]: 5890 nM | GI50 [10]: 2770 nM | TGI [10]: 6490 nM | GI50 [11]: 3200 nM | TGI [11]: 5670 nM | GI50 [12]: 1750 nM | TGI [12]: 3160 nM | GI50 [13]: 1450 nM | TGI [13]: 2940 nM | GI50 [14]: 1570 nM | TGI [14]: 2910 nM | GI50 [15]: 1960 nM | TGI [15]: 3770 nM | GI50 [16]: 1720 nM | TGI [16]: 3400 nM | GI50 [17]: 1480 nM | TGI [17]: 2850 nM | GI50 [18]: 1740 nM | TGI [18]: 3150 nM | GI50 [19]: 2170 nM | TGI [19]: 4160 nM | GI50 [21]: 2380 nM | TGI [21]: 4810 nM | GI50 [22]: 1710 nM | TGI [22]: 3100 nM | GI50 [23]: 2090 nM | TGI [23]: 3530 nM | GI50 [24]: 1590 nM | TGI [24]: 2930 nM | GI50 [25]: 1680 nM | TGI [25]: 3360 nM | GI50 [56]: 1940 nM | TGI [56]: 3410 nM | GI50 [40]: 1320 nM | TGI [40]: 2640 nM | GI50 [47]: > 100000 nM | TGI [47]: > 100000 nM | GI50 [48]: > 100000 nM | TGI [48]: > 100000 nM
